The values below come from patent publication US9062351B2, “Diagnostic, prognostic and therapeutic uses of long non-coding RNAs for cancer and regenerative medicine” (The Board of Trustees of the Leland Stanford Junior …, priority 2011, dated 2015).

In data set [1] the test system is human fetal lung fibroblasts. Nature of the data set: Custom tiling array RNA hybridization (ncRNA expression). The conditions noted are these: doxorubicin-treated human fetal lung fibroblasts; tiling array and qRT-PCR; of 216 ncRNAs. The format is cell-based. The source says:
A custom tiling array (Roche NimbleGen) was designed at 5 bp resolution across 25 kb of the 9p21 region (which encompasses CDKN2A, P14ARF and CDKN2B), as well as from 10 kb upstream to 2 kb downstream of each TSS from 53 other cell-cycle genes, including those encoding cyclins, CDKs and CDKIs (Table 1). In addition, the HOXA and HOXD loci were placed on the array as a control. Briefly, RNA was amplified (MessageAmp Kit, Ambion), reverse transcribed (RETROscript Kit, Ambion), labeled and hybridized according to the standard NimbleGen protocol.
Robust multichip average normalized single channel data from each array were subjected to peak calling using the NimbleScan program (Roche NimbleGen) with a window size of 50. Peaks with a peak score greater than ten were considered significant transcriptional units. […]
A peak calling algorithm searched for statistically significant signals above background and detected contiguous regions (peaks) of at least 50 bp. […] Averaging the signal intensity across all probes in a peak produced a quantitative estimate of transcript abundance. Despite possible 3′ bias caused by polyadenylated RNA selection, our procedure detected exon 1 transcription from the majority of cell-cycle coding genes (41 of the 56), showing that this custom tiling array can detect previously reported transcribed regions. […]
(In general: Quantitative PCR measures a nucleic acid by following its amplification.)

Data set [2] relates to human fetal lung fibroblasts (FL3). Nature of the data set: Quantitative RT-PCR of lncRNA expression, doxorubicin time course. The format is cell-based. The following applies: 24 hour time course. As for the experimental part:
Total RNA was extracted from cells using the TRIzol reagent (Invitrogen) and the RNeasy Mini Kit (Qiagen), and genomic DNA was eliminated using TURBO DNA-free (Ambion). RT-PCR using 50-250 ng of total RNA was performed using the One-Step RT-PCR Master Mix (Applied Biosystems) using TaqMan Gene Expression Assays and normalized to GAPDH. Strand-specific RT-PCR for PANDA was performed using the One-Step RT-PCR Master Mix SYBR Green (Stratagene)).
A panel of TaqMan custom ncRNA assays was developed targeting 60 of the 219 new transcribed regions using the ‘single-exon’ design mode. The transcript specificity and genome specificity of all TaqMan assays were verified using a position-specific alignment matrix to predict potential cross reactivity between designed assays and genome-wide nontarget transcripts or genomic sequences. […]
Our co-expression maps predicted associations of several lncRNAs with DNA damage response pathways (FIG. 3C and FIG. 11). […] In order to confirm whether these lncRNAs may be responsive to DNA damage, we measured the expression changes of 60 lncRNAs predicted in the DNA damage pathway (as well as upst:CDKN1A:−800) by quantitative RT-PCR in human fetal lung fibroblasts treated with doxorubicin over a 24 hour time course. […]

Data set [3] has the same test system. Briefly: TUNEL assay. The conditions noted are these: FL3 cells exposed to control siRNA. Format: cell-based. As to the method: TUNEL assays were performed using the in situ Cell Death Detection Kit, TMR Red (Roche). Human fetal lung fibroblasts were cultured on chamber slides (Lab-Tek), treated with 200 ng/ml doxorubicin (Sigma) for 24 hours, fixed with methanol at −20° C. for 10 minutes and incubated with the TUNEL labeling mixture for 1 hour at 37° C. Slides were then washed with PBS and mounted in Prolong Gold antifade reagent with DAPI (Invitrogen) and imaged at 20× magnification.

A further data set addresses T1, EZH2 (Homo sapiens, UniProt Q15910).
T1 construct: RNA chromatography of PANDA from doxorubicin-treated FL3 cell lysates; endogenous in cells; host or cells: doxorubicin-treated human fetal lung fibroblasts (FL3)
Nature of the data set: RNAse mediated RNA chromatography. The format is binding. The following applies: lysates of doxorubicin-treated human fibroblasts. As for the experimental part: (§1) RNAse mediated RNA chromatography (Michlewski et al. (2010) RNA 16:1673-1678, herein incorporated by reference in its entirety) was performed as previously described with the following modifications: 6 pmols of RNA (PANDA or a 1.2-kb fragment of LacZ) were used per reaction. RNA was folded (90° C. for 2 minutes, ice for 2 minutes), supplied with RNA structure buffer (Ambion) and shifted to room temperature (22-25° C.) for 20 minutes before conjugation to beads. RNAse digestion was performed with 5 μl of RNase A/T1 cocktail (Ambion) and 2 μl of RNase V1 (Ambion). Cellular lysates were prepared as follows: 10 million doxorubicin treated cells (16 hours) were incubated in 200 μl PBS, 600 μl H20 and 200 μl nuclear lysis buffer (1.28 M sucrose; 40 mM Tris-HCl pH 7.5; 20 mM MgCl2; 4% Triton X-100) on ice for 20 minutes. Nuclei were pelleted by centrifugation at 2,500 g for 15 minutes. The nuclear pellet was resuspended in 1 ml RIP buffer (150 mM KCl, 25 mM Tris pH 7.4, 0.5 mM DTT, 0.5% NP40, 1 mM PMSF and protease inhibitor (Roche Complete Protease Inhibitor Cocktail Tablets)). Resuspended nuclei were sheared using a motorized douncer for 5 seconds. Nuclear membrane and debris were pelleted by centrifugation at 18,000 g for 10 minutes.
(§2) Core promoters of cell death genes downstream of p53 are distinguished from other p53 target genes by the binding site for the transcription factor NF-YA (Morachis et al. (2010) Genes Dev. 24:135-147), and we reasoned that PANDA may affect NF-YA function. […] NF-YA is a nuclear transcription factor that activates the p53-responsive promoter of FAS upon DNA damage (Morachis et al. (2010) Genes Dev. 24:135-147). […] Thus, PANDA binding to NF-YA may evict or prevent NF-YA binding to chromatin. […] CDKN1A mRNA produces p21 to mediate arrest, whereas PANDA impedes NF-YA activation of apoptotic gene expression program (FIG. 8).

The target of the next data set is T2, LSD1 (Homo sapiens, UniProt O60341).
T2 construct: RNA chromatography of PANDA from doxorubicin-treated FL3 cell lysates; endogenous in cells; host or cells: doxorubicin-treated human fetal lung fibroblasts (FL3)
Briefly: RNAse mediated RNA chromatography. The format is binding. The following applies: lysates of doxorubicin-treated human fibroblasts. As to the method:
as §1, §2

In data set [4] the target is T3, NF-YA (Homo sapiens, UniProt P23511).
T3 construct: RNA chromatography of PANDA from doxorubicin-treated FL3 cell lysates; endogenous in cells; host or cells: doxorubicin-treated human fetal lung fibroblasts (FL3)
Briefly: RNAse mediated RNA chromatography. The format is binding. The conditions noted are these: in vitro transcribed RNA; lysates of doxorubicin-treated human fibroblasts. As for the experimental part: as §1, §2

The next data set has as its target T4, p21 (Homo sapiens, UniProt P38936).
T4 construct: RNA chromatography of PANDA from doxorubicin-treated FL3 cell lysates; endogenous in cells; host or cells: doxorubicin-treated human fetal lung fibroblasts (FL3)
Briefly: RNAse mediated RNA chromatography. The format is binding. The conditions noted are these: lysates of doxorubicin-treated human fibroblasts. As for the experimental part:
as §1, §2

Data set [5] deals with T3, NF-YA. Briefly: RNA immunoprecipitation of NF-YA. The format is binding. The conditions noted are these: doxorubicin-treated primary human lung fibroblasts, qRT-PCR. As for the experimental part: Ten million cells were treated with 200 ng/ml doxorubicin for 16 hours, trypsinized and crosslinked with 1% formaldehyde for 10 minutes, followed by the addition of 0.125 M glycine for 5 minutes. After two PBS washes, cells were lysed with 2× volume of Buffer A (10 mM HEPES pH 7.5, 1.5 mM MgCl2, 10 mM KCl, 0.5 mM DTT, 1 mM PMSF) for 15 minutes on ice at 150 r.p.m. NP-40 was added to a final concentration of 0.25% for 5 minutes on ice. Lysates were centrifuged for 3 minutes at 2,000 r.p.m., and the supernatant (cytosol) was collected. Next, an equal volume of Buffer C as that used of Buffer A was added to the pellet for 20 minutes with frequent vortex (20 mM HEPES pH 7.5, 10% glycerol, 0.42 M KCl, 4 mM MgCl2, 0.5 mM DTT, and 1 mM PMSF). Nuclear lysates were dounced for 5 seconds using a motorized pestle and sonicated for 7 minutes using a Diagenode Sonicator (30 seconds on, 30 seconds off, power setting H). Nuclear and cytoplasmic lysates were combined and centrifuged for 15 minutes at 13,000 r.p.m. Supernatants were transferred into micro spin columns (Pierce 89879), and 2 μg of antibody was added and incubated overnight. We washed 10 μl of Protein A/G UltraLink Resin (Pierce 53132) three times with RIP wash buffer (50 mM TrisHcl pH 7.9, 10% glycerol, 100 mM KCl, 5 mM MgCl2, 10 mM B-me and 0.1% NP-40) and added it to the immunoprecipitation reaction for 1 hour at 4° C. […]

T3 sequence (P23511 whole entry): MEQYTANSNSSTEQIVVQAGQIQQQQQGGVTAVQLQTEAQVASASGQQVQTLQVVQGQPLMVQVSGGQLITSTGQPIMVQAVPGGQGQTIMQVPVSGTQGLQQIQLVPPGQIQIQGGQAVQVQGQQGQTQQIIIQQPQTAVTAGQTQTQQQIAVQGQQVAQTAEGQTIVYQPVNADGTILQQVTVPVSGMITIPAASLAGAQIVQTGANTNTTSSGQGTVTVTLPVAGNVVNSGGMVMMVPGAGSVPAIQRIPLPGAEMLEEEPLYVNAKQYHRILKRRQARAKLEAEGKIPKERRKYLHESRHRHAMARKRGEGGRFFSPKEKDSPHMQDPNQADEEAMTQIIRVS
T4 sequence (P38936 whole entry): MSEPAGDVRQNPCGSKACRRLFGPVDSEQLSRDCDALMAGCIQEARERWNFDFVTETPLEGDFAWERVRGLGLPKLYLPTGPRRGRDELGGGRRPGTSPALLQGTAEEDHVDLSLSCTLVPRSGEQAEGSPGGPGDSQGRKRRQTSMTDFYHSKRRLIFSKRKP
T1 sequence (Q15910 whole entry): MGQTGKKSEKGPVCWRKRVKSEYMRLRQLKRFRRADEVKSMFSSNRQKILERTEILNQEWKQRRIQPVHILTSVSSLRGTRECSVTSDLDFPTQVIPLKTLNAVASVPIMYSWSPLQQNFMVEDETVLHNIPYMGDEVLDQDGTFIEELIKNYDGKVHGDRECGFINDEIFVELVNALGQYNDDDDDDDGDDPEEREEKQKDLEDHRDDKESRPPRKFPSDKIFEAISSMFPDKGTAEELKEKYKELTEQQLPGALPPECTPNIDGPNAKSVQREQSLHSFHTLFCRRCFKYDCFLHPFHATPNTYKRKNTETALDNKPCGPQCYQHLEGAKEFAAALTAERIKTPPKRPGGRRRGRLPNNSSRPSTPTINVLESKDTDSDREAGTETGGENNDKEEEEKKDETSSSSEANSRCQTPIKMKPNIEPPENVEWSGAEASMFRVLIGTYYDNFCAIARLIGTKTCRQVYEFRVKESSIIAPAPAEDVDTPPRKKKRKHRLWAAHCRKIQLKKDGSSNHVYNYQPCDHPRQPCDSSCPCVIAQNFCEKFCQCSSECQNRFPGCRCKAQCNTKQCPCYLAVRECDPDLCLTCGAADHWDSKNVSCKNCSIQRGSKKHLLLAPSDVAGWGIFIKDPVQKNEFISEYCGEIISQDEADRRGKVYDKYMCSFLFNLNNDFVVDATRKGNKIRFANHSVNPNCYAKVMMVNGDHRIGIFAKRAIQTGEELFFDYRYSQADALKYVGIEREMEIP
T1 sequence (O75530 whole entry partner): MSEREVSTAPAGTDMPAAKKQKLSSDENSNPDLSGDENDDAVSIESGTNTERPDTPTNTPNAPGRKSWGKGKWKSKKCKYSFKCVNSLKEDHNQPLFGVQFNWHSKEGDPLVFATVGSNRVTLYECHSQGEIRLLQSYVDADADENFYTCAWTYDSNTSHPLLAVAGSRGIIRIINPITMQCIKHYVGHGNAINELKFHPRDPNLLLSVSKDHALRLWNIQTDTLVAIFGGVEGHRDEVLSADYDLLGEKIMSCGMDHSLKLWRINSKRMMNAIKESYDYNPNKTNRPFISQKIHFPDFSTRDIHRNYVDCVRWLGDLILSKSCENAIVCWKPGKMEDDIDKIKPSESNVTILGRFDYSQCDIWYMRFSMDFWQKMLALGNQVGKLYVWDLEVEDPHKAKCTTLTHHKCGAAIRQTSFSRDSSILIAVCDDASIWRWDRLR
T1 sequence (Q15022 whole entry partner): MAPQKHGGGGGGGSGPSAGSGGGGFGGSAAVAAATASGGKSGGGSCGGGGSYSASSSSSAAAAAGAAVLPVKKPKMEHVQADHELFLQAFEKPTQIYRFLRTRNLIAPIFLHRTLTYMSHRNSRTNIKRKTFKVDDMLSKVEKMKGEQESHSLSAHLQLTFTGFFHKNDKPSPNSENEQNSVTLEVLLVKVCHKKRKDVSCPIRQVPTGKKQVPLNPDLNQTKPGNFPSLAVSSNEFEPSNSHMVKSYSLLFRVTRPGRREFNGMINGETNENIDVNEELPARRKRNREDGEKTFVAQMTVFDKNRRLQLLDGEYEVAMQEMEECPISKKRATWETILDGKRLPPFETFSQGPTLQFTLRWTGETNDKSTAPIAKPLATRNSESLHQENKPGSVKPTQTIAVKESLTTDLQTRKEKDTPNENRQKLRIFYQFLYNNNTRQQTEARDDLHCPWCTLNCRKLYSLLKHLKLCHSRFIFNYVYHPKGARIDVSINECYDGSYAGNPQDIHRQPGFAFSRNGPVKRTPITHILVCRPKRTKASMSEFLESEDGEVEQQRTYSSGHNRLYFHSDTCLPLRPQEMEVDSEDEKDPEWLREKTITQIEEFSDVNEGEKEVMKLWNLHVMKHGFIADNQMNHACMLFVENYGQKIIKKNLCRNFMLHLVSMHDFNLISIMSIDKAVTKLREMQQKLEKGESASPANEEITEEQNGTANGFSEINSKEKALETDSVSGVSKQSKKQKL

`COc1cccc2c1C(=O)c1c(O)c3c(c(O)c1C2=O)C[C@@](O)(C(=O)CO)C[C@@H]3O[C@H]1C[C@H](N)[C@H](O)[C@H](C)O1` [doxorubicin]: the “ncRNAs with at least two-fold change” value in data set [1] was 12 of the 216. For the same compound, in data set [2], the “expression of lncRNAs surrounding the CDKN1A TSS” value is “all five of the tested lncRNAs surrounding the CDKN1A TSS were induced” and the “induction of Upst:CDKN1A:−4,845 (PANDA) upon DNA damage” value is “up to 40 fold”. The “apoptosis as measured by TUNEL” value in data set [3] is given as “little to no apoptosis”.
As to “PANDA: P21-Associated NcRNA, DNA damage Activated; 1.5-kb long non-coding RNA”, the “retrieval of EZH2” value in the data set with EZH2 is on record as “did not retrieve”. In the data set with LSD1, the “retrieval of LSD1” value was “did not retrieve”. For the same compound, in the data set with NF-YA [4], the “retrieval of NF-YA from cellular lysates” value was “specifically retrieved”. Further, the “retrieval of p21” value with p21 is “did not retrieve”. Further, in the data set with NF-YA [5], the “retrieval of endogenous PANDA by immunoprecipitation of NF-YA” value is listed as “specifically retrieved”.
